How the values were obtained:
CYP2B15 [1] = assay: Affymetrix transcriptome measurement of CYP2B15 expression in Fuzzy rat epidermal split after 8 days of topical treatment; details: topical 1%
Protocol: The studies are carried out in female Fuzzy rats (Hsd: FUZZY-fz) 10 weeks old at the beginning of the study. The animals are treated at a dose of 1% (PPARg agonist Rosiglitazone in solution in acetone) once a day for 8 days. Two hours after the final treatment, the animals are sacrificed by euthanasia and the skin on the back is removed. After incubation in dispase, the epidermis carrying the sebaceous glands is detached from the dermis (epidermal split). After grinding of the samples, the mRNA is prepared using Qiagen columns, in accordance with the suppliers' instructions. The material thus prepared is subjected to large-scale transcriptome analysis on an Affymetrix platform. The data are subsequently standardized and, after statistical analysis, the results produced are expressed in arbitrary expression units (see below) accompanied, for each piece of data, by a statistical value for presence of the transcript (presence=1; absence=0).

GPD1 [2] = assay: Affymetrix transcriptome measurement of GPD1 expression in Fuzzy rat epidermal split after 8 days of topical treatment; assay type: in vivo; details: GPD1 mRNA (1371363_at), female FUZZY rats, topical 1%, once a day for 8 days, control condition 66
CYP2B15 [3] = assay: Real-time PCR of CYP2B15 expression in rat sebaceous gland (epidermal split) after topical PPARgamma agonist, kinetics; assay type: in vivo; details: topical 1% in acetone, female FUZZY rats, standardized to 18S, versus carrier group
From the text: • Strain: Ico:HSd:FUZZY-fz • Gender: female • Age: 10 weeks Number per batch: 40 (8 animals per group) Treatment: Route of administration: topical • Compound/batch: PPARgamma agonists: • A: 5-{4-[2-(methylpyridin-2-ylamino)ethoxy]benzyl}thiazolidine-2,4-dione • B: 2-(methoxyethoxymethoxy)naphthalene-2-carboxylic acid [4′-(2,4-dioxothiazolidin-5-ylmethyl)biphenyl-3-ylmethyl]methylamide or rosiglitazone • C: (S)-2-ethoxy-3-{4-[6-(3-heptyl-1-methylureido)pyridin-2-yl]phenyl}propionic acid • Doses: 1% • Carrier: acetone (001) • Duration: 96 hours Method of evaluation: The animals are weighed at the beginning and at the end of the study. Skin biopsies are taken (6 samples of skin excised per rat) in order to analyze the expression of the genes (RNA extraction, reverse transcriptase and real-time PCR). The samples are stored at 4° C. overnight before incubation in 1 M sodium bromide (NaBr) for 2 hours at 37° C. After incubation, the samples are separated into epidermis or dermis. The epidermal samples are stored at […] Under these conditions, the sebaceous glands are in the epidermal split. PCRs are carried out, beginning with the cDNAs originating from the epidermal splits containing sebaceous glands from control rats or rats treated with a PPARγ agonist: the mRNA is extracted using a column and quantified. The quality of the mRNAs is measured and is represented by the 18S/28S ratio. The results are standardized with respect to 18S, expressed as relative induction versus untreated animals (carrier group). The statistical analysis is obtained using internal software based on a modified Monte Carlo statistical analysis.

GPD1 [4] = assay: Real-time PCR of GPD1 expression in rat sebaceous gland (epidermal split) after topical PPARgamma agonist, kinetics; assay type: in vivo; details: topical 1% in acetone, female FUZZY rats, standardized to 18S, versus carrier group
Protocol: Skin biopsies are taken (6 samples of skin excised per rat) in order to analyze the expression of the genes (RNA extraction, reverse transcriptase and real-time PCR). The samples are stored at 4° C. overnight before incubation in 1 M sodium bromide (NaBr) for 2 hours at 37° C. After incubation, the samples are separated into epidermis or dermis. The epidermal samples are stored at 20° C. Under these conditions, the sebaceous glands are in the epidermal split. PCRs are carried out, beginning with the cDNAs originating from the epidermal splits containing sebaceous glands from control rats or rats treated with a PPARγ agonist: the mRNA is extracted using a column and quantified. The quality of the mRNAs is measured and is represented by the 18S/28S ratio. The results are standardized with respect to 18S, expressed as relative induction versus untreated animals (carrier group). The statistical analysis is obtained using internal software based on a modified Monte Carlo statistical analysis.

Row | Compound | Expression after treatment with 1% Rosiglitazone (CYP2B15 [1]; CYP2B15 mRNA (1387722_at), female FUZZY rats, once a day for 8 days, control condition 120) | Significance of the expression after treatment with 1% Rosiglitazone (CYP2B15 [1]; CYP2B15 transcript presence indicator, 8 days) | Expression after treatment with 1% Rosiglitazone (GPD1 [2]) | CYP2B15 relative induction (CYP2B15 [3]; 0 hours) | CYP2B15 relative induction (CYP2B15 [3]; 8 hours) | CYP2B15 relative induction (CYP2B15 [3]; 24 hours) | CYP2B15 relative induction (CYP2B15 [3]; 48 hours) | CYP2B15 relative induction (CYP2B15 [3]; 96 hours) | GPD1 relative induction (GPD1 [4]; 0 hours) | GPD1 relative induction (GPD1 [4]; 8 hours) | GPD1 relative induction (GPD1 [4]; 24 hours) | GPD1 relative induction (GPD1 [4]; 48 hours) | GPD1 relative induction (GPD1 [4]; 96 hours)
1 | CN(CCOc1ccc(CC2SC(=O)NC2=O)cc1)c1ccccn1 (centres unmarked) [Rosiglitazone] | 35 arbitrary expression units | 1 | 243 arbitrary expression units |  |  |  |  |  |  |  |  |  | 
2 | CN(CCOc1ccc(CC2SC(=O)NC2=O)cc1)c1ccccn1 (centres unmarked) [A, 5-{4-[2-(methylpyridin-2-ylamino)ethoxy]benzyl}thiazolidine-2,4-dione] |  |  |  | 1 | 1.56 | 0.68 | 0.29 | 0.08 | 1 | 18.52 | 12.53 | 6.93 | 3.42
3 | CCCCCCCNC(=O)N(C)c1cccc(-c2ccc(C[C@H](OCC)C(=O)O)cc2)n1 [C, (S)-2-ethoxy-3-{4-[6-(3-heptyl-1-methylureido)pyridin-2-yl]phenyl}propionic acid] |  |  |  | 1 | 0.61 | 0.18 | 0.11 | 0.04 | 1 | 7.59 | 11.56 | 7.50 | 3.44

From US20110189686A1, “SCREENING FOR MODULATORS OF CYP2B15 AND/OR GPD1 FOR THE TREATMENT OF ACNE, OF SEBORRHOEIC DERMATITIS OR OF HYPERSEBORRHOEA” (Galderma Research & Development, priority 2008, published 2011)
